Experimental data reported in paper PMC12410356 (International Journal for Parasitology: Drugs and Drug …, 2025).

Legend:
[1] = test system: E. multilocularis metacestode vesicles; test: Metacestode vesicle viability assay (ATP, CellTiter-Glo); assay type: cell-based, Echinococcus multilocularis
Experimental: Viability was assessed after 12 days using the same metacestode vesicles as for the PGI release assay. Triton X-100 was added to each well to a final concentration of 0.1 %. Subsequently the metacestode vesicles were broken mechanically and 50 μL of the supernatant was mixed with 50 μL of CellTiter-Glo® buffer (Promega, Dübendorf, Switzerland). Measurements were performed on a HIDEX Sense microplate reader.

[2] = test system: E. multilocularis metacestode vesicles; test: Phosphoglucose isomerase (PGI) release assay (damage-marker release) on metacestode vesicles; assay type: cell-based, Echinococcus multilocularis; details: 10 μM; for PGI d5 (relative PGI release): 5 days; for PGI d12 (relative PGI release): 12 days
[3] = overview screen, 10 μM, singlets, 12 days, relative to DMSO control
[4] = overview screen, singlets, relative to 0.1 % Triton X-100, DMSO subtracted
[5] = confirmation screen, triplicates, mean

COc1cc(C(C)(C)CCCC(C)C)cc(OC)c1OC [MMV1782102]
Viability d12 (relative viability) [1, 3]: 58.4954% | PGI d5 (relative PGI release) [2, 4]: 0.2099% | PGI d12 (relative PGI release) [2, 4]: -19.1561%

COCCn1cnc2c(O)nc(Nc3ccccc3)nc21 [MMV1782103]
Viability d12 (relative viability) [1, 3]: 66.6969% | PGI d5 (relative PGI release) [2, 4]: -0.2041% | PGI d12 (relative PGI release) [2, 4]: -2.0996%

NC(=O)c1nccn([C@@H]2O[C@H](CO)[C@@H](O)[C@H]2O)c1=O [MMV1782104]
Viability d12 (relative viability) [1, 3]: 106.79% | PGI d5 (relative PGI release) [2, 4]: 1.472% | PGI d12 (relative PGI release) [2, 4]: -19.2173%

O=c1oc2ccc(Br)cc2cc1CSc1ncc[nH]1 [MMV1782105]
Viability d12 (relative viability) [1, 3]: 107.746% | PGI d5 (relative PGI release) [2, 4]: 1.562% | PGI d12 (relative PGI release) [2, 4]: -17.9407%

CCc1cc(CCC(=O)Nc2ccccc2O)c(=O)[nH]c1C [MMV1782106]
Viability d12 (relative viability) [1, 3]: 488.194% | PGI d5 (relative PGI release) [2, 4]: 1.217% | PGI d12 (relative PGI release) [2, 4]: -17.9747%

O=c1[nH]c(=O)n(Cc2cccc(Oc3ccccc3)c2)cc1Nc1ccccc1 [MMV1782107]
Viability d12 (relative viability) [1, 3]: 211.334% | PGI d5 (relative PGI release) [2, 4]: 0.6712% | PGI d12 (relative PGI release) [2, 4]: -19.0475%

CCCCc1ccc(S(=O)(=O)Nc2cc(C)on2)cc1 [MMV1782108]
Viability d12 (relative viability) [1, 3]: 50.3487% | PGI d5 (relative PGI release) [2, 4]: -2.561% | PGI d12 (relative PGI release) [2, 4]: -24.5808%

O=C(N[C@H](Cc1cccc2ccccc12)C(=O)NCCc1c[nH]cn1)C1Cc2ccccc2C1 [MMV1782109]
Viability d12 (relative viability) [1, 3]: 29.391% | PGI d5 (relative PGI release) [2, 4]: -2.59% | PGI d12 (relative PGI release) [2, 4]: -25.3398%

O=C(CCc1ccc2c(c1)OCO2)NCc1ccc(-c2ccccc2F)cc1 [MMV1782110]
Viability d12 (relative viability) [1, 3]: 100.363% | PGI d5 (relative PGI release) [2, 4]: -0.8152% | PGI d12 (relative PGI release) [2, 4]: -13.3688%

CC(C)C(=O)N[C@H]1[C@H]([C@H](O)[C@H](O)CO)OC(C(=O)O)=C[C@@H]1N=[N+]=[N-] [MMV1782111]
Viability d12 (relative viability) [1, 3]: 85.5263% | PGI d5 (relative PGI release) [2, 4]: -0.6196% | PGI d12 (relative PGI release) [2, 4]: 0.1424%

CCOC(=O)/C=C/[C@H](C[C@@H]1CCNC1=O)NC(=O)[C@H](CC)n1cccc(NC(=O)c2cc(C)on2)c1=O [MMV1782112]
Viability d12 (relative viability) [1, 3]: 109.382% | PGI d5 (relative PGI release) [2, 4]: 0.1675% | PGI d12 (relative PGI release) [2, 4]: -19.6518%

CCCC1(C2CC2)c2cc(Cl)ccc2NC(=O)N1C (stereo not drawn) [MMV1782113]
Viability d12 (relative viability) [1, 3]: 107.305% | PGI d5 (relative PGI release) [2, 4]: 0.2859% | PGI d12 (relative PGI release) [2, 4]: 0.236%

COc1ccc2sc3c(c2c1)NC(C)CNC3=O (stereo not drawn) [MMV1782115]
Viability d12 (relative viability) [1, 3]: 114.23% | PGI d5 (relative PGI release) [2, 4]: -1.121% | PGI d12 (relative PGI release) [2, 4]: 1.77%

O=C(Nc1nnc(-c2ccc(Cl)cc2)o1)c1ccc(F)cc1 [MMV1782140]
Viability d12 (relative viability) [1, 3]: 86.8653% | PGI d5 (relative PGI release) [2, 4]: -3.764% | PGI d12 (relative PGI release) [2, 4]: 9.726%

CN1C(=O)C(c2ccccc2)C(=O)N(c2ccccc2)c2cc(C(F)(F)F)ccc21 (stereo not drawn) [MMV1782208]
Viability d12 (relative viability) [1, 3]: 97.8548% | PGI d5 (relative PGI release) [2, 4]: 0.993% | PGI d12 (relative PGI release) [2, 4]: -0.2102%

COc1ccc(C(C)(C)C)cc1NC(=O)C(=O)c1ccc(OCCN2CCOCC2)c2ccccc12 [MMV1782209]
Viability d12 (relative viability) [1, 3]: 152.31% | PGI d5 (relative PGI release) [2, 4]: 0.2921% | PGI d12 (relative PGI release) [2, 4]: 0.2691%

Nc1nc2c(ncn2/C=C2/CC2(CO)CO)c(=O)[nH]1 [MMV1782210]
Viability d12 (relative viability) [1, 3]: 144.056% | PGI d5 (relative PGI release) [2, 4]: 0.1371% | PGI d12 (relative PGI release) [2, 4]: -1.147%

C[C@@H](NC(=O)c1cccc(-c2cnc(-c3cc4ccccc4cn3)[nH]2)c1)c1ccc(F)cc1 [MMV1782211]
Viability d12 (relative viability) [1, 3]: 82.804% | PGI d5 (relative PGI release) [2, 4]: 2.451% | PGI d12 (relative PGI release) [2, 4]: 6.1027%

CC(C)(C)c1ccc(C(=O)NC(=O)N2CCCc3ccccc32)cc1 [MMV1782212]
Viability d12 (relative viability) [1, 3]: 85.4175% | PGI d5 (relative PGI release) [2, 4]: -2.428% | PGI d12 (relative PGI release) [2, 4]: -24.6748%

O=C(CSc1nnc(Br)n1-c1ccc(C2CC2)c2ccccc12)Nc1ccc(C(=O)O)cc1Cl [MMV1782213]
Viability d12 (relative viability) [1, 3]: 116.37% | PGI d5 (relative PGI release) [2, 4]: 1.533% | PGI d12 (relative PGI release) [2, 4]: -0.7445%

C=CCN(C(=O)OCc1ccc([N+](=O)[O-])cc1)C1CCN(CC[C@](C)(CN(C)S(=O)(=O)c2ccccc2)c2ccccc2)CC1 [MMV1782214]
Viability d12 (relative viability) [1, 3]: 76.726% | PGI d5 (relative PGI release) [2, 4]: 0.9992% | PGI d12 (relative PGI release) [2, 4]: 3.53%

O=P(O)(O)C(CCCc1cccc(Oc2ccccc2)c1)S(=O)(=O)O (stereo not drawn) [MMV1782215]
Viability d12 (relative viability) [1, 3]: 65.7947% | PGI d5 (relative PGI release) [2, 4]: 0.5378% | PGI d12 (relative PGI release) [2, 4]: 19.5176%

CCCNc1ccc(S(=O)(=O)Nc2cc(C)on2)cc1 [MMV1782216]
Viability d12 (relative viability) [1, 3]: 105.791% | PGI d5 (relative PGI release) [2, 4]: -2.087% | PGI d12 (relative PGI release) [2, 4]: -24.1037%

Cc1cc(NS(=O)(=O)c2ccc(-c3ccc(F)cc3F)cc2)no1 [MMV1782217]
Viability d12 (relative viability) [1, 3]: 58.3644% | PGI d5 (relative PGI release) [2, 4]: -2.099% | PGI d12 (relative PGI release) [2, 4]: -26.6121%

O=C(NC(=O)N1CCCc2ccccc21)c1ccc(Cl)cc1Cl [MMV1782218]
Viability d12 (relative viability) [1, 3]: 60.7859% | PGI d5 (relative PGI release) [2, 4]: -2.44% | PGI d12 (relative PGI release) [2, 4]: -25.0073%

CC(C)CCN1C(=O)C(C2=NS(=O)(=O)c3cc(NS(C)(=O)=O)ccc3N2)=C(O)[C@@H]2[C@H]3CC[C@H](C3)[C@@H]21 [MMV1782220]
Viability d12 (relative viability) [1, 3]: 132.239% | PGI d5 (relative PGI release) [2, 4]: 0.5402% | PGI d12 (relative PGI release) [2, 4]: 0.853%

C[C@H](c1cccc2ccccc12)N(C)Cc1ccccc1 [MMV1782221]
Viability d12 (relative viability) [1, 3]: 45.2554% | PGI d5 (relative PGI release) [2, 4]: 2% | PGI d12 (relative PGI release) [2, 4]: -21.1471%

CN1c2ccc(Cl)cc2N(c2ccccc2)C(=O)c2cn(Cc3ccc(CN4CCOCC4)cc3)nc21 [MMV1782222]
Viability d12 (relative viability) [1, 3]: 123.597% | PGI d5 (relative PGI release) [2, 4]: -0.005582% | PGI d12 (relative PGI release) [2, 4]: 0.3517%

CN(C)c1[nH]c(=O)ncc1F [MMV1782223]
Viability d12 (relative viability) [1, 3]: 98.8605% | PGI d5 (relative PGI release) [2, 4]: -2.446% | PGI d12 (relative PGI release) [2, 4]: -24.7543%

N#C/C(=C1/SC[C@@H](c2ccc(Cl)cc2Cl)S1)n1ccnc1 [MMV1782224]
Viability d12 (relative viability) ([1]; 10 µM): 41.9155% | PGI d5 (relative PGI release) [2, 4]: 12.0659% | PGI d12 (relative PGI release) [2, 4]: -22.8965%

O=C(Nc1[nH]c(=O)ncc1F)c1ccccc1 [MMV1782225]
Viability d12 (relative viability) [1, 3]: 224.691% | PGI d5 (relative PGI release) [2, 4]: -0.8152% | PGI d12 (relative PGI release) [2, 4]: -21.87%

OB1OCc2c1ccc(Cl)c2F [MMV1782226]
Viability d12 (relative viability) [1, 3]: 39.4941% | PGI d5 (relative PGI release) [2, 4]: -2.405% | PGI d12 (relative PGI release) [2, 4]: -26.1495%

O=C(NNC(=S)Nc1ccc(Cl)cc1)c1ccncc1 [MMV1782227]
Viability d12 (relative viability) ([1]; confirmation screen, 10 μM, triplicates, mean, 12 days): 83.65% | Viability d12 (relative viability) [1, 3]: 12.3576% | PGI d5 (relative PGI release) [2, 5]: 0.0543% | PGI d12 (relative PGI release) [2, 5]: -0.30% | PGI d5 (relative PGI release) [2, 4]: 3.665% | PGI d12 (relative PGI release) [2, 4]: 72.3585%

Cc1cc(CCOc2c(C)cc(-c3nnn(C)n3)cc2C)on1 [MMV1782349]
Viability d12 (relative viability) [1, 3]: 107.625% | PGI d5 (relative PGI release) [2, 4]: -0.7312% | PGI d12 (relative PGI release) [2, 4]: -0.8271%

CC(C)Oc1ccc(-n2cnc3cc(/C=C\c4ccc(C(C)(C)O)cc4)ccc32)cc1 [MMV1782350]
Viability d12 (relative viability) [1, 3]: 72.1416% | PGI d5 (relative PGI release) [2, 4]: -0.1916% | PGI d12 (relative PGI release) [2, 4]: 0.3132%

O=C(NC(=O)N1CCCc2ccccc21)c1cccc(Cl)c1 [MMV1782351]
Viability d12 (relative viability) [1, 3]: 118.649% | PGI d5 (relative PGI release) [2, 4]: -2.457% | PGI d12 (relative PGI release) [2, 4]: -24.682%

O=C(O)COc1cccc2c1CC[C@](O)(COC(=O)N(c1ccccc1)c1ccccc1)C2 [MMV1782352]
Viability d12 (relative viability) [1, 3]: 68.1339% | PGI d5 (relative PGI release) [2, 4]: -0.08001% | PGI d12 (relative PGI release) [2, 4]: -0.2818%
